Assays:
[1] = molecular target: T1, 5-hydroxytryptamine receptor 7 (Homo sapiens, UniProt P34969); test: Displacement of [3H]5CT from 5HT7 receptor
[2] = molecular target: T1, 5-hydroxytryptamine receptor 7; test: Displacement of [3H]5CT from 5HT7 receptor at 0.1 uM
[3] = molecular target: T2, 5-hydroxytryptamine receptor 1A (Homo sapiens, UniProt P08908); test: Binding affinity at 5HT1A receptor
T2 sequence (P08908 whole entry): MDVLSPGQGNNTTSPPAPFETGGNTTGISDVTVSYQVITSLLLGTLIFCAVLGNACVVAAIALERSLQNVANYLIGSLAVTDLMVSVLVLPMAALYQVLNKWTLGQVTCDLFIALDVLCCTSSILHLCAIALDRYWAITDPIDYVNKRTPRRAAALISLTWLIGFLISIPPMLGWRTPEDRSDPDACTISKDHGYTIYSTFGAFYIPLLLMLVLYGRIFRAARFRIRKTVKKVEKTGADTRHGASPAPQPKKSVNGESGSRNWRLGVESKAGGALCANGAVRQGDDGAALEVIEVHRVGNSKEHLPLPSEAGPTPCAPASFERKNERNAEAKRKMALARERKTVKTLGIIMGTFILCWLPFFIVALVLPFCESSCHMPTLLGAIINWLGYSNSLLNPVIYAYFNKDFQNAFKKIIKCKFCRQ

[4] = molecular target: T1, 5-hydroxytryptamine receptor 7; test: Displacement of [3H]5CT from 5HT7 receptor at 1 uM

T1 sequence (P34969 whole entry): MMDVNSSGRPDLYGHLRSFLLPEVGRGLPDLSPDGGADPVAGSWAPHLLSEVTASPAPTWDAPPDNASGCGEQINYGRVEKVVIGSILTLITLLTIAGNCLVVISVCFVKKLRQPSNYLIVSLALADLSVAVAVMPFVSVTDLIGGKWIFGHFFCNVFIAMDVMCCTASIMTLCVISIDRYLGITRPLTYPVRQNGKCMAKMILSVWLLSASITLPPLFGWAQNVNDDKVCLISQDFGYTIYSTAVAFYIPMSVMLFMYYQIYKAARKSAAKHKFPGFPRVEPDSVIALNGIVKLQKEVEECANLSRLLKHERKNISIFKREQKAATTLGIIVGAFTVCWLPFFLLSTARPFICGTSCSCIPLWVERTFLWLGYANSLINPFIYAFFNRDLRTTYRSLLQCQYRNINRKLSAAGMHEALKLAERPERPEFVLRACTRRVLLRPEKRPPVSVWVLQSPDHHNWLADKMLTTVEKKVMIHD

| Compound | Ki ([1]; read-out: pKi (converted)) | Activity [2] | Ki [3] | Ki ([1]; read-out: Ki) | Activity [4] |
| --- | --- | --- | --- | --- | --- |
| O=C1Nc2cccc3c2[C@]1(CCCCN1CC=C(c2ccccc2)CC1)CCC3 | 2.14 nM |  |  |  |  |
| OC(CNCC1COc2ccccc2O1)COCc1ccccc1Cl (centres undefined) |  | 23% | 36 nM | 265 nM | 67% |
| OC(CNCC1COc2ccccc2O1)COc1ccccc1F (centres undefined) |  | 29% | 8 nM | 197 nM | 75% |

— ChEMBL document CHEMBL1156218, “The development and validation of a novel virtual screening cascade protocol to identify potential serotonin 5-HT(7)R antagonists” (Bioorg Med Chem Lett, 2010)
